According to PubChem BioAssay (NCI):
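A five-concentration, 48-hour dose response in 96-well plates underlies each endpoint, interpolated linearly between surrounding concentrations. Here, GI50 denotes the concentration required for 50% inhibition of growth. TGI denotes the concentration required for complete inhibition of growth.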

Key:
Test in all cases: inhibition of tumour cell growth, NCI panel, 48 h
HL-60(TB) leukemia = test system: HL-60(TB) leukemia
SN12C renal = test system: SN12C renal
OVCAR-5 ovarian = test system: OVCAR-5 ovarian
UACC-62 melanoma = test system: UACC-62 melanoma
MOLT-4 leukemia = test system: MOLT-4 leukemia
PC-3 prostate = test system: PC-3 prostate
UO-31 renal = test system: UO-31 renal
SF-268 CNS = test system: SF-268 CNS
EKVX NSCLC = test system: EKVX NSCLC
CAKI-1 renal = test system: CAKI-1 renal
A549 NSCLC = test system: A549 NSCLC
OVCAR-4 ovarian = test system: OVCAR-4 ovarian
NCI-H226 lung = test system: NCI-H226 lung
HOP-92 NSCLC = test system: HOP-92 NSCLC
A498 renal = test system: A498 renal
RXF 393 renal = test system: RXF 393 renal
RPMI-8226 leukemia = test system: RPMI-8226 leukemia
HCT-15 colon = test system: HCT-15 colon
NCI/ADR-RES ovarian = test system: NCI/ADR-RES ovarian
SR leukemia = test system: SR leukemia
SNB-75 CNS = test system: SNB-75 CNS
UACC-257 melanoma = test system: UACC-257 melanoma
SF-539 CNS = test system: SF-539 CNS
KM12 colon = test system: KM12 colon
NCI-H522 lung = test system: NCI-H522 lung
BT-549 breast = test system: BT-549 breast
DU-145 prostate = test system: DU-145 prostate
SNB-19 CNS = test system: SNB-19 CNS
HCT-116 colon = test system: HCT-116 colon
HS 578T breast = test system: HS 578T breast
SK-MEL-28 melanoma = test system: SK-MEL-28 melanoma
SK-MEL-5 melanoma = test system: SK-MEL-5 melanoma
HOP-62 NSCLC = test system: HOP-62 NSCLC
OVCAR-3 ovarian = test system: OVCAR-3 ovarian
SF-295 CNS = test system: SF-295 CNS
T-47D breast = test system: T-47D breast
TK-10 renal = test system: TK-10 renal
IGROV1 ovarian = test system: IGROV1 ovarian
MALME-3M melanoma = test system: MALME-3M melanoma
LOX IMVI melanoma = test system: LOX IMVI melanoma
MCF7 breast = test system: MCF7 breast
SW-620 colon = test system: SW-620 colon
K-562 leukemia = test system: K-562 leukemia
U251 CNS = test system: U251 CNS
CCRF-CEM leukemia = test system: CCRF-CEM leukemia
786-0 renal = test system: 786-0 renal
MDA-MB-231 breast = test system: MDA-MB-231 breast
HT29 colon = test system: HT29 colon
M14 melanoma = test system: M14 melanoma
NCI-H460 lung = test system: NCI-H460 lung
ACHN renal = test system: ACHN renal
SK-OV-3 ovarian = test system: SK-OV-3 ovarian
OVCAR-8 ovarian = test system: OVCAR-8 ovarian
HCC-2998 colon = test system: HCC-2998 colon
SK-MEL-2 melanoma = test system: SK-MEL-2 melanoma
MDA-MB-435 = test system: MDA-MB-435
COLO 205 colon = test system: COLO 205 colon
NCI-H23 lung = test system: NCI-H23 lung
MDA-MB-468 breast = test system: MDA-MB-468 breast

COc1ccc(CN2[C@@H](C(=O)NCc3ccc(C(=O)NO)cc3)Cc3c([nH]c4ccccc34)[C@@H]2C2CC2)cc1
GI50 (HL-60(TB) leukemia): 2.73 µM | TGI (HL-60(TB) leukemia): > 19.8 µM | GI50 (SN12C renal): 3.86 µM | TGI (SN12C renal): 13.4 µM | GI50 (OVCAR-5 ovarian): 1.87 µM | TGI (OVCAR-5 ovarian): 6.05 µM | GI50 (UACC-62 melanoma): 1.55 µM | TGI (UACC-62 melanoma): 4.6 µM | GI50 (MOLT-4 leukemia): 1.85 µM | TGI (MOLT-4 leukemia): > 19.8 µM | GI50 (PC-3 prostate): 3.12 µM | TGI (PC-3 prostate): > 19.8 µM | GI50 (UO-31 renal): 3 µM | TGI (UO-31 renal): 5.72 µM | GI50 (SF-268 CNS): 4.4 µM | TGI (SF-268 CNS): 13 µM | GI50 (EKVX NSCLC): 3.2 µM | TGI (EKVX NSCLC): 10.9 µM | GI50 (CAKI-1 renal): 2.39 µM | TGI (CAKI-1 renal): 6.73 µM | GI50 (A549 NSCLC): 3.54 µM | TGI (A549 NSCLC): 9.02 µM | GI50 (OVCAR-4 ovarian): 4.74 µM | TGI (OVCAR-4 ovarian): > 19.8 µM | GI50 (NCI-H226 lung): 3.41 µM | TGI (NCI-H226 lung): 10.1 µM | GI50 (HOP-92 NSCLC): 2.62 µM | TGI (HOP-92 NSCLC): 6.65 µM | GI50 (A498 renal): 2.77 µM | TGI (A498 renal): 7.99 µM | GI50 (RXF 393 renal): 0.797 µM | TGI (RXF 393 renal): 4.09 µM | GI50 (RPMI-8226 leukemia): 2.92 µM | TGI (RPMI-8226 leukemia): > 19.8 µM | GI50 (HCT-15 colon): 3.75 µM | TGI (HCT-15 colon): 10.5 µM | GI50 (NCI/ADR-RES ovarian): 4.05 µM | TGI (NCI/ADR-RES ovarian): 13.8 µM | GI50 (SR leukemia): > 19.8 µM | TGI (SR leukemia): > 19.8 µM | GI50 (SNB-75 CNS): 1.13 µM | TGI (SNB-75 CNS): 5.68 µM | GI50 (UACC-257 melanoma): 2.39 µM | TGI (UACC-257 melanoma): 9.74 µM | GI50 (SF-539 CNS): 2.48 µM | TGI (SF-539 CNS): 5.71 µM | GI50 (KM12 colon): 3.51 µM | TGI (KM12 colon): 16.7 µM | GI50 (NCI-H522 lung): 0.964 µM | TGI (NCI-H522 lung): 5.06 µM | GI50 (BT-549 breast): 4.99 µM | TGI (BT-549 breast): 9.96 µM | GI50 (DU-145 prostate): 4.38 µM | TGI (DU-145 prostate): > 19.8 µM | GI50 (SNB-19 CNS): 2.89 µM | TGI (SNB-19 CNS): 6.8 µM | GI50 (HCT-116 colon): 2.08 µM | TGI (HCT-116 colon): > 19.8 µM | GI50 (HS 578T breast): 1.85 µM | TGI (HS 578T breast): 14.4 µM | GI50 (SK-MEL-28 melanoma): 1.98 µM | TGI (SK-MEL-28 melanoma): 5.88 µM | GI50 (SK-MEL-5 melanoma): 2.6 µM | TGI (SK-MEL-5 melanoma): 5.25 µM | GI50 (HOP-62 NSCLC): 3.48 µM | TGI (HOP-62 NSCLC): 8.58 µM | GI50 (OVCAR-3 ovarian): 3.41 µM | TGI (OVCAR-3 ovarian): 14.7 µM | GI50 (SF-295 CNS): 2.92 µM | TGI (SF-295 CNS): 6.05 µM | GI50 (T-47D breast): 3.82 µM | TGI (T-47D breast): 12.6 µM | GI50 (TK-10 renal): 3.17 µM | TGI (TK-10 renal): 10.1 µM | GI50 (IGROV1 ovarian): 2.6 µM | TGI (IGROV1 ovarian): 5.78 µM | GI50 (MALME-3M melanoma): 0.847 µM | TGI (MALME-3M melanoma): 4.17 µM | GI50 (LOX IMVI melanoma): 2.37 µM | TGI (LOX IMVI melanoma): 4.81 µM | GI50 (MCF7 breast): 2.33 µM | TGI (MCF7 breast): 12 µM | GI50 (SW-620 colon): 2.26 µM | TGI (SW-620 colon): 8.03 µM | GI50 (K-562 leukemia): 1.67 µM | TGI (K-562 leukemia): > 19.8 µM | GI50 (U251 CNS): 2.67 µM | TGI (U251 CNS): 6.78 µM | GI50 (CCRF-CEM leukemia): 0.996 µM | TGI (CCRF-CEM leukemia): > 19.8 µM | GI50 (786-0 renal): 3.98 µM | TGI (786-0 renal): 13 µM | GI50 (MDA-MB-231 breast): 2.43 µM | TGI (MDA-MB-231 breast): 7.52 µM | GI50 (HT29 colon): 4.84 µM | TGI (HT29 colon): > 19.8 µM | GI50 (M14 melanoma): 4.07 µM | TGI (M14 melanoma): > 19.8 µM | GI50 (NCI-H460 lung): 3.14 µM | TGI (NCI-H460 lung): 9.21 µM | GI50 (ACHN renal): 3.52 µM | TGI (ACHN renal): 9.33 µM | GI50 (SK-OV-3 ovarian): 2.87 µM | TGI (SK-OV-3 ovarian): 6.97 µM | GI50 (OVCAR-8 ovarian): 2.56 µM | TGI (OVCAR-8 ovarian): 9.71 µM | GI50 (HCC-2998 colon): 2.6 µM | TGI (HCC-2998 colon): 5.59 µM | GI50 (SK-MEL-2 melanoma): 4.11 µM | TGI (SK-MEL-2 melanoma): 12 µM | GI50 (MDA-MB-435): 0.638 µM | TGI (MDA-MB-435): 2.67 µM | GI50 (COLO 205 colon): 3.47 µM | TGI (COLO 205 colon): 8.03 µM | GI50 (NCI-H23 lung): 2.75 µM | TGI (NCI-H23 lung): 5.77 µM | GI50 (MDA-MB-468 breast): 1 µM | TGI (MDA-MB-468 breast): 4.34 µM
